Data on two compounds can be found in paper PMC9710854 (Chemical communications (Cambridge, England), 2022).

A short description of data set [1]: Plasma protein binding estimated by an HPLC-based method. Type of data set: in vitro ADME.
Data set [2] concerns MM.1S cells. As to the kind of experiment: Cell viability of MM.1S cells after 24 h treatment. Type of data set: cell-based.
A short description of data set [3]: Experimental partition coefficient. Format: physicochemical.
Data set [4] concerns the target USP7 catalytic domain (Homo sapiens, UniProt Q93009). As to the kind of experiment: USP7 inhibition with isolated USP7 catalytic domain using Ub-AMC as a substrate. Type of data set: biochemical.

USP7 catalytic domain, sequence (Q93009 214-521 limits assumed): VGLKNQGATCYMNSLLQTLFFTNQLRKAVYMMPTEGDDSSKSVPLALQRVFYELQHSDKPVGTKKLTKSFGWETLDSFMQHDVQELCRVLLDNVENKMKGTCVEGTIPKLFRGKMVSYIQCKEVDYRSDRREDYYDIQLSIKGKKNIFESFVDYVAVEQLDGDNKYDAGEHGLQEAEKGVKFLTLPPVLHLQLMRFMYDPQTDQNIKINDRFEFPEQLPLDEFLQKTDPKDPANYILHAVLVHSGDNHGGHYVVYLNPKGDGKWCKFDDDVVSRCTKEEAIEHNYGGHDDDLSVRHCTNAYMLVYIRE

For `C[C@H](CC(=O)N1CCC(O)(Cn2cnc3cc(NC(=O)CCN4CCN(C)CC4)ccc3c2=O)CC1)c1ccccc1` [Compound 3, XL188], the PPB in data set [1] (plasma protein binding, estimated by an HPLC-based method) is reported as 87%. In data set [2] (remaining viability, MM.1S cells, 10 μM), the cell viability – broadly, the share of living cells, or the viability signal relative to a control – is 43%. Also, in data set [3], the logD (in general, lipophilicity at a set pH, counting ionised and neutral species) came to 1.3.

On to `O=C(C[C@@H](C(F)F)n1ccc(F)n1)N1CCC(O)(Cn2cnc3c(cnn3-c3ccc(F)cc3)c2=O)CC1` [Compound 2, FT671], for which the fraction unbound (in general, the share of the substance not bound to proteins or other matrix) in data set [1] (plasma) was 0.1. Also, the IC50 (as a rule, the concentration at which inhibition is half-maximal) in data set [4] came out at 32 ± 7 nM. Also, the viability (usually the share of living cells, or the viability signal relative to a control) at 10 µM in data set [2] (Homo sapiens, MM1.S, read-out: cell viability) is 41%. The logD in data set [3] stood at 2.5.
